Each structure is given as a SMILES string.

The target of this experiment is T1, hAT2 (Homo sapiens, UniProt P50052).
T1 construct: expressed in transfected cells; host or cells: HEK-293
T1 sequence (P50052 1-363): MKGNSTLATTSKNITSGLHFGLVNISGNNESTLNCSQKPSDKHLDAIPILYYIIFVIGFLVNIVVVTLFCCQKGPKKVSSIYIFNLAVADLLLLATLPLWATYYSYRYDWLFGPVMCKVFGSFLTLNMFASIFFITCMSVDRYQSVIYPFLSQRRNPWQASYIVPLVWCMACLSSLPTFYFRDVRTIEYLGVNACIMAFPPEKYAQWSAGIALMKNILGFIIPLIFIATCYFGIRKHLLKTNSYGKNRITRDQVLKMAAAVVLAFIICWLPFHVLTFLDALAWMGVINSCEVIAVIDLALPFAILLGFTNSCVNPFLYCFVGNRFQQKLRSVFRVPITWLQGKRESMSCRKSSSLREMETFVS
Description: hAT2 receptor binding assay (SPA, [125I]-Sar1-Ile8-Angiotensin II). The note with it: membrane of HEK-293 cells overexpressing hAT2; 0.1 nM 125I ligand. The procedure: hAT2 Receptor Binding Assay
Protease inhibitor mixture, free of ethylenediaminetetraacetic acid-1 tablets (Roche #11873580001) (50 mL plus one piece)
Experimental Methods and Steps
The reference ligand PD123319 and the test compound were prepared into a 750 μM mother liquor by DMSO; each compound was prepared into a solution of 8 concentration gradients (up to a concentration of 750 μM, 3-fold dilution) and 10 μl of the solution was added to a master of a 384-well plate per well.
The SPA beads were prepared to a mother liquor of 25 mg/ml by the buffer;
The isotope [^125I]-Sar1-Ile8-Angiotensin II was prepared into a mother liquor of 50 μCi/ml by adding pure water.
The cell membrane overexpressing hAT2 in HEK-293 cells was prepared to 2.5 mg/ml by the buffer.
200 nl of compound was aspirated from the mother plate with ECHO to each well of the 384-well test plate. ZPE was added to an equal volume of DMSO. (The concentration of the test compound in the reaction was diluted by 250 times).
A 50 ml membrane solution containing 10 μg/μl of magnetic beads and 0.05 μg/μl of AT2 was prepared, placed on a shaker and uniformly mixed. (100 rpm, 30 min). The test plate finally contained an hAT2 membrane with 1.25 μg/well and magnetic beads with 250 μg/well.
A 3.2 ml membrane liquid mixture was added to the compound test plate by using a Multidrop Combi pipette, and 25 μl was added to each well.
A 0.2 nM solution was prepared with 50 μCi/ml of isotope [^125I]-Sar1-Ile8-Angiotensin II mother liquor by the buffer, and 0.2 nM of ^125I was added to the compound test plate with a Multidrop Combi pipette. A volume of 25 μl was added to each well. The final concentration of ^125I isotope is 0.1 nM.
The prepared test plate was placed on a shaker overnight at room temperature at 200 rpm.
The test plate was centrifuged with a centrifuge at 1200 rpm for 1 min.
The centrifuged test plate was read with Microbeta.
`COc1ccc2c(c1OCc1ccccc1)C[C@@H](C(=O)O)N(C(=O)[C@H](O[C@@H]1CCOC1)c1ccccc1)C2` (single isomer, unassigned) [Compound 10]: the IC50 (in general, the concentration that inhibits the measured activity by half) came out at 60.7 nM. In turn, `COCCO[C@@H](C(=O)N1Cc2ccc(OC)c(OCc3ccccc3)c2C[C@H]1C(=O)O)c1ccccc1` [Compound 4] returned an IC50 of 836 nM. The same measure for `COCCO[C@H](C(=O)N1Cc2ccc(OC)c(OCc3ccccc3)c2C[C@H]1C(=O)O)c1ccccc1` [Compound 3]: 197 nM. Under `COc1ccc2c(c1OCc1ccccc1)C[C@@H](C(=O)O)N(C(=O)[C@H](Oc1ccc(F)cc1F)c1ccccc1)C2` [Compound 28] stands 29.8 nM; under `COc1ccc2c(c1OCc1ccccc1)C[C@@H](C(=O)O)N(C(=O)[C@H](Oc1ccc(C#N)cc1)c1ccccc1)C2` [Compound 30], 373 nM; under `Cc1ccc2c(c1OCc1ccccc1)C[C@@H](C(=O)O)N(C(=O)[C@@H](O[C@H]1CC[C@@H](O)CC1)c1ccccc1)C2` [Compound 71], 1090 nM. On to `COc1ccc2c(c1OCc1ccccc1)C[C@@H](C(=O)O)N(C(=O)C(OC1CCCC1)c1ccccc1)C2` (some centres unmarked) [Compound 47], for which the half-inhibitory concentration (IC50) came out at 17 nM. Under `CC1(O[C@H](C(=O)N2Cc3ccc(Cl)c(OCc4ccccc4)c3C[C@H]2C(=O)O)c2ccccc2)CCCC1` [Compound 75] stands 3.9 nM; under `COc1ccc2c(c1OCc1ccccc1)C[C@@H](C(=O)O)N(C(=O)[C@@H](O[C@H]1CC[C@H](O)CC1)c1ccccc1)C2` [Compound 65], 157 nM; under `COc1ccc2c(c1OCc1ccccc1)C[C@@H](C(=O)O)N(C(=O)[C@H](O[C@H]1CC[C@H](O)CC1)c1ccccc1)C2` [Compound 66], > 3000 nM. The same measure for `COc1ccc2c(c1OCc1ccccc1)C[C@@H](C(=O)O)N(C(=O)[C@H](Oc1ccc3ccccc3c1)c1ccccc1)C2` [Compound 36]: 97.1 nM; for `COc1ccc2c(c1OCc1ccccc1)C[C@@H](C(=O)O)N(C(=O)[C@H](NC(=O)C1CCCC1)c1ccccc1)C2` [Compound 43]: > 3000 nM; for `COc1ccc2c(c1OCc1cccs1)C[C@@H](C(=O)O)N(C(=O)[C@@H](OC1CCCC1)c1ccccc1)C2` [Compound 117]: 9.1 nM. The same measure for `O=C(O)[C@@H]1Cc2c(cccc2OCc2ccccc2)CN1C(=O)[C@@H](O[C@H]1C[C@@H](O)C1)c1ccccc1` [Compound 85]: 83.5 nM; for `COc1ccc2c(c1OCc1ccccc1)CC(C(=O)O)N(C(=O)C(OC1CCOCC1)c1ccccc1)C2` (single isomer, unassigned) [Compound 1]: 66.4 nM; for `COc1ccc2c(c1OCc1ccccc1)C[C@@H](C(=O)O)N(C(=O)[C@H](Oc1c(F)cc(F)cc1F)c1ccccc1)C2` [Compound 16]: 16.5 nM. Take `CCCCO[C@H](C(=O)N1Cc2ccc(OC)c(OCc3ccccc3)c2C[C@H]1C(=O)O)c1ccccc1` [Compound 5]: the IC50 stood at 17.7 nM. Under `O=C(O)[C@@H]1Cc2c(ccc(Cl)c2OCc2ccccc2)CN1C(=O)[C@H](O[C@H]1CC[C@@H](O)CC1)c1ccccc1` [Compound 78] stands 7.4 nM; under `COc1ccc2c(c1OCc1ccccc1)C[C@@H](C(=O)O)N(C(=O)[C@@H](OC1CCCC1)c1ccc(F)cc1)C2` [Compound 53], 84.1 nM. Compound `Cc1ccc2c(c1OCc1ccccc1)C[C@@H](C(=O)O)N(C(=O)[C@H](O[C@H]1CC[C@@H](O)CC1)c1ccccc1)C2` [Compound 72] showed a concentration for half-maximal inhibition (IC50) of 5.3 nM. With `COc1ccc2c(c1OCc1ccccc1)C[C@@H](C(=O)O)N(C(=O)[C@H](Oc1ccc(Cl)cc1)c1ccccc1)C2` [Compound 34], the half-inhibitory concentration (IC50) was 227 nM.

Compound `O=C(O)[C@@H]1Cc2c(ccc(Cl)c2OCc2ccccc2)CN1C(=O)[C@H](OC1CC(F)(F)C1)c1ccccc1` [Compound 74] displayed a half-inhibitory concentration (IC50) of 129 nM. Under `COc1ccc2c(c1OCc1ccccc1)C[C@@H](C(=O)O)N(C(=O)[C@H](OC1CCCC1)c1ccccc1)C2` [Compound 38] stands 691 nM; under `COc1ccc2c(c1OCc1ccccc1)CC(C(=O)O)N(C(=O)C(OC1CCOCC1)c1ccccc1)C2` (single isomer, unassigned) [Compound 2], 850 nM. `O=C(O)[C@@H]1Cc2c(ccc(O)c2OCc2ccccc2)CN1C(=O)[C@@H](OC1CCCC1)c1ccccc1` [Compound 118] showed a concentration for half-maximal inhibition (IC50) of 30.4 nM. Under `COc1ccc2c(c1OCc1ccccc1)C[C@@H](C(=O)O)N(C(=O)[C@H](Oc1cccs1)c1ccccc1)C2` [Compound 26] stands 95.1 nM. The same measure for `COc1ccc2c(c1OCc1ccccc1)C[C@@H](C(=O)O)N(C(=O)[C@H](OC1CCOC1)c1ccccc1)C2` (single isomer, unassigned) [Compound 12]: > 3000 nM. Compound `O=C(O)[C@@H]1Cc2c(ccc(Cl)c2OCc2ccccc2)CN1C(=O)[C@@H](OC1CC(F)(F)C1)c1ccccc1` [Compound 73] registered a half-maximal inhibitory concentration (IC50) of 3.7 nM. Under `COc1ccc2c(c1OCc1ccccc1)C[C@@H](C(=O)O)N(C(=O)[C@H](c1ccccc1)N(C)C1CCCC1)C2` [Compound 45] stands 487 nM; under `N#Cc1ccc2c(c1OCc1ccccc1)C[C@@H](C(=O)O)N(C(=O)[C@@H](OC1CCCC1)c1ccccc1)C2` [Compound 109], 1050 nM; under `COc1ccc2c(c1OCc1ccccc1)C[C@@H](C(=O)O)N(C(=O)[C@H](OC1CC(F)(F)C1)c1ccccc1)C2` [Compound 52], 126 nM. Under `COc1ccc2c(c1OCc1ccccc1)C[C@@](C)(C(=O)O)N(C(=O)[C@@H](OC1CCCC1)c1ccccc1)C2` [Compound 113] stands > 3000 nM; under `COc1ccc2c(c1OCc1ccccc1)C[C@@H](C(=O)O)N(C(=O)[C@@H](OC1COC1)c1ccccc1)C2` [Compound 13], 154 nM; under `COc1ccc2c(c1OCc1ccccc1)C[C@@H](C(=O)O)N(C(=O)[C@H](OCC(F)(F)F)c1ccccc1)C2` [Compound 8], 513 nM.

For the compound `CC1(O[C@@H](C(=O)N2Cc3ccc(Cl)c(OCc4ccccc4)c3C[C@H]2C(=O)O)c2ccccc2)CCCC1` [Compound 76], the IC50 came out at 72.7 nM.

Compound `COc1ccc2c(c1OCc1ccccc1)C[C@@H](C(=O)O)N(C(=O)[C@@H](Oc1cccs1)c1ccccc1)C2` [Compound 25] displayed a concentration for half-maximal inhibition (IC50) of 72.1 nM.

Take `COc1ccc2c(c1OCc1ccccc1)C[C@@H](C(=O)O)N(C(=O)[C@@H](O[C@@H]1CCOC1)c1ccccc1)C2` (single isomer, unassigned) [Compound 9]: the IC50 was determined as 47.6 nM.

In turn, `O=C(O)[C@@H]1Cc2c(cccc2OCc2ccccc2)CN1C(=O)[C@H](O[C@H]1C[C@@H](O)C1)c1ccccc1` [Compound 86] gave an IC50 of 879 nM. In turn, `COc1ccc2c(c1OCc1ccccc1)C[C@@H](C(=O)O)N(C(=O)[C@H](Oc1ccccn1)c1ccccc1)C2` [Compound 22] gave an IC50 of 1340 nM. The same measure for `COc1ccc2c(c1OCc1ccccc1)C[C@@H](C(=O)O)N(C(=O)[C@@H](Oc1c(F)cc(F)cc1F)c1ccccc1)C2` [Compound 15]: 96.4 nM; for `Cc1ccc2c(c1OCc1ccccc1)C[C@@H](C(=O)O)N(C(=O)[C@H](OC1(C)CCCC1)c1ccccc1)C2` [Compound 70]: 65.6 nM. The same measure for `O=C(O)[C@@H]1Cc2c(cccc2OCc2ccccc2)CN1C(=O)[C@@H](OC1CC(F)(F)C1)c1ccccc1` [Compound 83]: 3.2 nM; for `COc1ccc2c(c1OCc1ccccc1)C[C@](C)(C(=O)O)N(C(=O)[C@H](OC1CCCC1)c1ccccc1)C2` [Compound 114]: 412 nM. The same measure for `COc1ccc2c(c1OCc1ccccc1)C[C@@H](C(=O)O)N(C(=O)[C@H](OC1CCC3CC31)c1ccccc1)C2` (single isomer, unassigned) [Compound 62]: 270 nM.

Take `O=C(O)[C@@H]1Cc2c(ccc(Cl)c2OCc2ccccc2)CN1C(=O)[C@@H](O[C@H]1CC[C@@H](O)CC1)c1ccccc1` [Compound 77]: the concentration for half-maximal inhibition (IC50) was determined as 881 nM. The same measure for `COc1ccc2c(c1OCc1ccccc1)C[C@@H](C(=O)O)N(C(=O)[C@H](Oc1ccccc1)c1ccccc1)C2` [Compound 20]: 176 nM. Under `Cc1ccc2c(c1OCc1ccccc1)C[C@@H](C(=O)O)N(C(=O)[C@@H](OC1CC(F)(F)C1)c1ccccc1)C2` [Compound 67] stands 1.6 nM.
